Results: patent US12534707B2, “Method for generating cardiac tissue mimetics” (GENOME BIOLOGICS UG, priority 2019, dated 2026)
“Also recorded” adds a separate entry of the source.

Columns and labels:
[1] = test system: cardiac tissue mimetics (CTMs); assay: Seahorse assay (OCR, ECAR) of CTMs; type: cell-based, rat, human; conditions: PE-treated vs control CTMs
Method: The Agilent Seahorse XFe96 spheroid microplate was coated with Poly-D Lysine 100 μg/mL following the manual instruction. 1×KHB medium (111 mM NaCl, 4.7 mM KCl, 2 mM MgSO4, 1.2 mM Na2HPO4, 2.5 mM D-Glucose, 0.5 mM carnitine) supplemented with 6 mM D-Glucose was prepared prior the experiment. CTMs were washed twice with KHB medium and every single CTM was then transferred directly into each well of XFe96 spheroid microplate containing 175 μL of KHB medium. CTMs were centered into the micro-chamber and incubated at 37° C. in non-CO2 incubator for 1 hour. The Seahorse XF Cell Mito Stress Test was performed using sequential injection of Oligomycin (2.5 μM, Sigma, O4876), FCCP (2.0 μM, Sigma, C2920) and Antimycin A (0.5 μM, Sigma, A8674) following a 3-min-mixing and 3-min-measuring cycles for up to 2 hours. Oxygen consumption rate (OCR) and Extracellular acidification rate (ECAR) were measured and calculated using Seahorse XFe96 Analyzers (Agilent Technologies).

[2] = test system: cardiac tissue mimetics (CTMs); assay: CTM vascularisation (GFP-HUVEC sprout length, thickness, branch points); type: cell-based, rat, human; conditions: 200 μM PE, 10 days, vs control; for filopodia formation in CTMs: FIG. 13; for vascularization / angiogenesis of CTMs: FIGS. 13, 14, 36
[3] = test system: HUVEC spheroids; assay: Spheroid-based angiogenic sprouting assay; type: cell-based, human
Method: After 72 hours, cell culture supernatants were centrifuged (500×g, 5 minutes) to deplete dead cells and stored at −80° C.
Endothelial cell sprouting was studied by in vitro spheroid-based angiogenesis assays. In brief, HUVECs were trypsinized and transferred into a mixture of fully supplemented EBM™ and methylcellulose (80%:20%). […] After 24 hours, spheroids were collected, pelleted (200×g, 3 minuted), resuspended in methylcellulose supplemented with FCS (80%:20%) and embedded in a collagen Type-I gel (Corning; 354236). HUVEC spheroids were then either cultured with fully supplemented EBM (+/−VEGF (50 ng/mL; BioLegend; 583702) or +/−PE (200 μM)), maintenance medium or conditioned cell culture medium.

[4] = test system: cardiac tissue mimetics (CTMs); assay: Lactate dehydrogenase assay and toxicity assay (phospho-Histone H2A.X) of CTMs; type: cell-based, rat, human
Method: Media of CTMs were replaced completely with fresh medium 24 h before performing the assays. After 24 h, supernatants were collected and in maximum 50 μL of each supernatant was used for every measurement with the Lactate Dehydrogenase Activity Kit (Sigma; MAK066). To determine enzyme activity, the absorbance at 450 nm (A450) was measured with the CLARIOstar plate reader (BMG Labtech). LDH activity were calculated following the manufacturer's instruction. CTMs that incubated with 0.2% H2O2 in medium for 30 minutes at 37° C. served as positive control.

[5] = test system: CTMs obtained from human iPSC; assay: Stress response of CTMs obtained from human iPSC (contraction frequency, volume, lactate); type: cell-based; conditions: 200 μM PE
Method: After 10 days of culture, CTMs were treated with 200 μM Phenylephrine (PE), and in parallel, were cultured under conditions of hypoxia (3% O2). Videos of contracting CTMs were recorded for 1 min and analysed to observe the response. The contraction frequency was measured at day 3 (to obtain a short-term response) and day 20 (to obtain a long-term response). […] Human iPS cardiomyocytes (hiPS-CMs) were ordered from Fujifilm CDI and thawed before the culture. Human cardiac fibroblasts (hCFB) were cultured and trypsinized. The two cell types were mixed at a CM:FB ratio of 5:1 in plating medium (PM provided by CDI). The mixed cells were left to form cardiac tissue mimetics in 30 μL hanging drops containing PM with a density of 5000 hiPS-CMs and 1000 hCFB and incubated at 37° for four days. The cardiac tissue mimetics were then collected, and every single cardiac tissue mimetic was again distributed into each well of ultra-low-attachment (ULA) plates with maintenance medium (MM; provided by CDI). MM was changed every two days. After seven days, human IPS endothelial cells (hiPS-ECs) were thawed and added into each well at a CM:EC ratio of 2:1. A mixed medium of MM and EC growth medium (EGM; provided by CDI) at a 1:1 ratio was used and half of the medium was changed every second day. After 10 days cardiac tissue mimetics were harvested for further assays.

[6] = test system: cardiac tissue mimetics (CTMs); assay: mRNA expression in CTMs (qPCR of titin isoforms, bulk RNA sequencing); type: cell-based, rat, human
Method: CTMs, heart tissues of neonatal pups and adult rats were collected into Lysing Matrix D tubes (MP Biomedical; 6913-500) and 700 μL of TriFast (VWR; 3010-100ML) was added. Cells and tissues were homogenized 3 times for 20 s following by 5 min. pause on ice. Total RNA was purified with the Direct-zol™ RNA MicroPrep kit (Zymo Research; R2060). The RNA concentration was determined by measuring absorption at 260 nm and 280 nm with the NanoDrop® ND 2000-spectrophotometer (Peq Lab).
cDNA was synthesized from 500 ng of total RNA with EcoDry Premix RNA to cDNA (Random Hexamers) (Clontech; 639546). qPCR was performed using 10 μL of iTaq™ Universal SYBR® Green Supermix (Bio-Rad; 172-5124), 1 μL of 10 μmol/L forward and reverse primer each, 1 μL of cDNA template and 7 μL of H2O in a Bio-Rad CFX96 Connect Real-Time PCR system. Primers using to quantify mRNA expression were ordered from Metabion (Table 2).
Bulk RNA sequencing was performed as previously described (J. U. G. Wagner, E. Chavakis, E. M. Rogg, M. Muhly-Reinholz, S. F. Glaser, S. Gunther, D. John, F. Bonini, A. M. Zeiher, L. Schaefer, M. J. Hannocks, R. A. Boon, S. Dimmeler, 2018, Arterioscler Thromb Vasc Biol 38(5), 1170-1177). […] Sequencing was performed on the NextSeq500 instrument (IIlumina) using v2 chemistry, resulting in minimum of 30M reads per library with 1×75 bp single end setup. […]

[7] = test system: cardiac tissue mimetics (CTMs); assay: Fluorescence immunohistochemistry of CTMs (α-actinin, WGA, Atp5a1); type: cell-based, rat, human
Method: Cryosections of CTMs were stained with DAPI, anti-α-Actinin and Alexa Flour conjugate of Wheat-Germ-Agglutinin. Area of 100 cardiomyocytes per condition were quantified using ImageJ. In case of whole mount stainings, CTMs were permeabilized with 0.2% Triton® X-100 in PBS for 1 hour at room temperature followed by blocking with 5% horse serum (Sigma-Aldrich) in PBS for 30 minutes at room temperature. Primary antibodies (see Table 1) were diluted 1:200 in 5% horse serum and incubated over night at 4° C. Before using the secondary antibody (see table below), CTMs were washed three times with PBS containing 1% Tween 20 and 0.002% Triton® X-100 (referred as PBT from here after) for 20 minutes at room temperature. Secondary antibodies (1:500) and DAPI (1:1000; Carl-Roth GmbH & Co. KG) were diluted in 5% horse serum together and incubated for 4 hours at room temperature in the dark. […] Cryo-sections were prepared by embedding fixed spheroids in O.C.T medium (Tissue-Tek), snap-freezing them in liquid nitrogen and cutting them in 10 μm thick sections. Sections were permeabilized and blocked for one hour in 0.1% Triton® X100 (in PBS+BSA). Primary antibody incubated with the sections diluted 1:50-1:100 in 1 mM MgCl2, 1 mM CaCl2, 0.1 mM MnCl2, 1% Triton® X-100 or 0.2% saponin over night at 4° C. […]

[8] = test system: cardiac tissue mimetics (CTMs); assay: CTM size measurement; conditions: 200 μM PE, 10 days, vs untreated control; FIG. 4
[9] = test system: cardiac tissue mimetics (CTMs); assay: Contractility measurement of CTMs (spontaneous beats per minute; pacing at 1 Hz and 15 V); conditions: PE-treated vs control, electric pacing 1 Hz; FIG. 8

Compound: CNC[C@H](O)c1cccc(O)c1 [PE, phenylephrine]
- glycolysis (basal extracellular acidification rate) ([1]; FIG. 11): reduction
- oxidation metabolism (oxygen consumption rate) ([1]; FIGS. 9-10): increased
- filopodia formation in CTMs [2]: more filopodia
- filopodia formation in CTMs ([2]; listed as phenylephrine): induces
- number of branch points in CTMs ([2]; FIG. 14): increased
- tube length (accumulated sprout length) in CTMs ([2]; FIG. 14): increased
- tube thickness in CTMs ([2]; FIG. 14): increased
- vascularization / angiogenesis of CTMs [2]: significantly augmented
- vascularization / angiogenesis of CTMs ([2]; listed as phenylephrine): induces
- EC spheroid growth / vascular network growth and branching (cumulative sprout length), direct treatment ([3]; HUVEC spheroids, 200 μM PE or 50 ng/mL VEGF, 24 hours, FIG. 15): did not impact
- EC growth and sprouting with conditioned medium of PE-stimulated CM ([3]; neonatal rat CM treated with PE 72 hours, supernatant on HUVEC spheroids 24 hours, FIG. 17): significantly increase
- EC sprouting with conditioned medium of PE-stimulated FB ([3]; neonatal rat FB treated with PE 72 hours, supernatant on HUVEC spheroids 24 hours, FIG. 38): no effect
- extracellular lactate dehydrogenase (LDH) as marker of necrosis ([4]; mature CTMs with PE vs untreated control, FIG. 35): failed to reveal differences
- cytotoxicity in CTMs (p-γ-H2AX staining, LDH activity) ([4]; phenylephrine-treated mature CTMs, FIGS. 34 and 35): no cytotoxicity
- contraction frequency ([5]; day 3, FIG. 41): significantly increased
- volume of the CTMs ([5]; day 3, FIG. 42): no significant change
- lactate concentration in culture media ([5]; day 3, FIG. 43): significant increase
- contraction frequency ([5]; day 20, FIG. 41): significantly increased
- lactate concentration in culture media ([5]; day 20, FIG. 43): significant increase
- volume of the CTMs ([5]; day 20, vs control, FIG. 42): significant increase
- KEGG gene sets for adrenergic signaling, metabolism and contractility ([6]; PE stimulation vs untreated CTMs, FIG. 33): enrichment and elevated expression
- titin isoform mRNA expression (N2B, N2BA2) ([6]; PE-treated vs control CTMs, FIG. 6): shift towards adult-type titin isoform expression
- cardiomyocyte maturation and hypertrophy (sarcomeric α-actinin staining, sarcomere organization and density) ([7]; 200 μM PE, 10 days, vs control, FIGS. 5-7): significantly increased
- mitochondrial function and mitochondrial density ([7]; PE-treated vs control CTMs, Atp5a1 staining, FIGS. 9-12): increased
- CTM growth (size as volume) [8]: significantly increased
- contractile amplitude in paced CTMs [9]: significant increase; also recorded: augment
